Assay results: US20050107394A1, “Novel use of selective pde5 inhibitors” (priority 2001, published 2005)
Values joined by “and” are separate entries in the source; they are usually repeats but may differ in a detail not shown here. Equal values may be shown once.

What was measured:
[1] = tested on: bleomycin-induced pulmonary fibrosis in rabbits; experiment: Oxygenation index (PaO2/FiO2) in bleomycin-induced pulmonary fibrosis; assay type: in vivo, rabbit; settings: for effect on O2 saturation: FIG. 2; for oxygenation index (PaO2/FiO2), raised compared with the control (190): NO 20 ppm inhaled, sildenafil 1 mg/kg oral
Experimental: FIG. 2: Result of determination of the oxygenation index (arterial oxygen partial pressure/fraction of inspired oxygen [PaO2/FiO2]) measured in the model of bleomycin-induced pulmonary fibrosis in rabbits. Whereas systemic PGI (6 ng/kg body weight/min] (PGI, prostacyclin) reduces the oxygenation index by 60% compared with the control (190), the oxygenation index was markedly raised by inhaled NO [20 ppm] by 28% and sildenafil (oral) [1 mg/kg body weight] by 31%.
(§1) Healthy rabbits of both sexes were pretreated orally with a gyrase inhibitor (Baytril®) for one week. Ten animals pretreated in this way were not treated with bleomyin and served as control, and, on the day of exposure, the others were anaesthetized with a Ketanest®/Rompun® mixture, intubated intratracheally and ventilated mechanically. An ultrasonic nebulizer (MMAD 2.5 μm) was used to administer by inhalation exactly 1.8 U/kg of bodyweight of bleomycin under volume-controlled ventilation. After 4, 8, 16, 24, 32 and 64 days (in each case n≧5) post exposure, the animals were again anaesthetized, provided with an arterial access (right carotid artery) and underwent bodyweight-adapted ventilation via a tracheostomy in a volume-controlled method. The arterial pO2 and pCO2, and the static compliance of the lung were measured (by recording the intrathoracic pressure and with slow inflation/deflation manoeuvres). Subsequently, the lungs of these animals were dissected and perfused with a Krebs Hensefeit buffer. Under these conditions, the capillary filtraton coefficient (cfc) was then found from the weight gain of the organ after increasing the pulmonary venous pressure by 7.5 mmHg, and the peak ventilation pressure was found. After completion of these measurements, the left main bronchus was ligated in the end-inspiratory position and a bronchoalveolar lavage (BAL) was performed on the right lung. Subsequently, the large vessels and airways of the right lung were dissected off and the organ was homogenized. The left lung was perfusion-fixed with 4% formalin solution while maintaining a pressure gradient of 25 cm H2O and was then stored in 4% formalin until embedded. Firstly, the cells were removed from the BAL, counted and differentiated via a Papenheim stain. The cell-free BAL supernatant was then aliquoted and submitted to further analysis of the surfactant and coagulation properties and a determination of the matrix metallo proteinases (MMPs) and their inhibitors (TIMPs) and of soluble collagen. Bronchoalveolar deposition of 1.8 U/kg of bodyweight of bleomycin led initially to development of an ARDS-like event, with a massive restriction of gas exchange (paO2/FiO2 of >500 mmHg in the controls reduced to ˜110 mmHg on day 4), ground-glass opacities over all sections of the lung in the HRCT and an increase of about 5-fold in the capillary filtration coefficient (cfc). In the later phase of bleomycin-induced lung damage there was then development of pronounced fibrosis which could be confirmed on the basis of the increase in soluble collagen in the BAL and the hydroxyproline in the tissue, on the basis of the histological specimens and of the HRCT findings. […] Consistent with this, a pronounced increase in the extracellular matrix and an alveolar and also interstitial ingress of fibroblasts was observable in the histological sections. Besides the homogeneously distributed zones of fibrosis there were also thin hyperdistended sections of lung with a honeycomb appearance.
Systemically administered PGI (vasodilatator) increased the shunting to about 30%. […] The data for O2 saturation (FIG. 2) correspond directly.

[2] = tested on: bleomycin-induced pulmonary fibrosis in rabbits; experiment: Shunting by MIGET in bleomycin-induced pulmonary fibrosis; assay type: in vivo, rabbit; settings: for effect on shunting: NO inhaled, sildenafil oral; for shunting (MIGET), level reached: PGI 6 ng/kg/min systemic, NO 20 ppm inhaled, sildenafil 1 mg/kg oral
Experimental: FIG. 1: Result of determination of shunting with the aid of the model of bleomycin-induced pulmonary fibrosis in rabbits. The measurements by the inert gas exchange method (MIGET) [Wagner et al., J Appl Physiol. 1974;36:588-99] reveal that the shunting was increased by 15% in this model, compared with the untreated control. Systemically administered PGI [6 ng/kg body weight/min] (PGI, prostacyclin) increased the shunting to about 30%. […] Shunting was reduced to 6% by oral administration of the PDE5 inhibitor sidenafil [1 mg/kg body weight].
as §1, with “Besides the homogeneously distributed zones of fibrosis there were also thin hyperdistended sections of lung with a honeycomb appearance.” left out

[3] = tested on: patients with COPD (chronic obstructive pulmonary disease); experiment: 6-minutes walking test in COPD patients; assay type: in vivo, human; settings: 6 months
Excerpt: FIG. 7: Result of the 6-minutes walking test measured on 4 patients with COPD (chronic obstructive pulmonary disease). […]

[4] = tested on: patients with COPD (chronic obstructive pulmonary disease); experiment: Arterial oxygen saturation at rest in COPD patients; assay type: in vivo, human; set-up: dose or concentration left out as unconfirmed; settings: 4 COPD patients; sildenafil oral, 6 months
Experimental: FIG. 8: Result of determination of the arterial oxygen saturation on 4 patients with COPD (chronic obstructive pulmonary disease) treated with sildenafil (75 mg/day) (oral) measured at rest over a period of 6 months. The arterial oxygen saturation in the patient improved respectively by 2%, 4%, 5% and 6%, compared with the saturation at the start of the series of measurements (time: 0 months). […]

With `[N]=O` [NO, nitric oxide] the “effect on O2 saturation” value [1] was “marked increases in O2 saturation”, the “oxygenation index (PaO2/FiO2), raised compared with the control (190)” value [1] was 28% and the “effect on shunting” value [2] was “reduced the shunting”. The “shunting (MIGET), level reached” value [2] was 9%.
With `CCCCC[C@H](O)/C=C/[C@@H]1[C@H]2C/C(=C/CCCC(=O)O)O[C@H]2C[C@H]1O` [PGI, prostacyclin] the “effect on O2 saturation” value [1] was “reduced O2 saturation”, the “oxygenation index (PaO2/FiO2), reduction compared with the control (190)” value ([1]; PGI 6 ng/kg/min systemic) was 60% and the “shunting (MIGET), level reached” value [2] was “about 30%”.
`CCCc1nn(C)c2c(=O)[nH]c(-c3cc(S(=O)(=O)N4CCN(C)CC4)ccc3OCC)nc12` [sildenafil, 5-[2-ethoxy-5-(4-methyl-1-piperazinyl-sulphonyl)phenyl]-1-methyl-3-n-propyl-1,6-dihydro-7H-pyrazolo[4,3-d]pyrimidin-7-one] was tested, and the “6-minutes walking distance, improvement compared with the starting point (0 months), one value per patient” value ([3]; 4 COPD patients, 75 mg sildenafil oral each day) was 41% and 45% and 74% and 150%, the “functional capacity (6-min walking, arterial O2 saturation), words” value ([3]; 4 patients, 50 mg/d sildenafil oral) was “marked improvement” and the “effect on O2 saturation” value [1] was “marked increases in O2 saturation”. For the same compound, the “oxygenation index (PaO2/FiO2), raised compared with the control (190)” value [1] was 31%, the “effect on shunting” value [2] was “reduced the shunting even more than NO” and the “shunting (MIGET), level reached” value [2] was 6%. For the same compound, the “arterial oxygen saturation at rest, improvement compared with the start (0 months), one value per patient” value [4] was 2% and 4% and 5% and 6%.
